Assay [1] in a line: Inhibition of Saccharomyces cerevisiae alpha-glucosidase using p-nitrophenyl-alpha-D-glucopyranoside as substrate preincubated for 5 mins prior to substrate addition measured after 35 mins by spectrophotocolorimetric assay.
Assay [2] in a line: Noncompetitive inhibition of Saccharomyces cerevisiae alpha-glucosidase using p-nitrophenyl-alpha-D-glucopyranoside as substrate by Lineweaver-Burk plot and Dixon plot analysis.
Assay [3] can be described thus: Competitive inhibition of Saccharomyces cerevisiae alpha-glucosidase using p-nitrophenyl-alpha-D-glucopyranoside as substrate by Lineweaver-Burk plot and Dixon plot analysis.
Assay [4] can be described thus: Mixed type inhibition of Saccharomyces cerevisiae alpha-glucosidase using p-nitrophenyl-alpha-D-glucopyranoside as substrate by Lineweaver-Burk plot and Dixon plot analysis.

The structures appear in SMILES notation. pIC50, pKi: −log10 of the molar value.

The term pIC50 denotes −log10 of the IC50, conventionally taken in molar units. As a reminder, the pKi is −log10 of the Ki, conventionally taken in molar units. Read a low pKi as a large Ki. For the compound `CC1(C)C=Cc2c(ccc(C(=O)CO)c2O)O1`, in assay [1], the pIC50 is 3.38. In assay [2], the pKi was 3.89.
Regarding `C[C@H]1O[C@H](O[C@H]2[C@H](O)[C@@H](O)[C@@H](O[C@H]3[C@H](O)[C@@H](O)C(O)O[C@@H]3CO)O[C@@H]2CO)[C@H](O)[C@@H](O)[C@@H]1N[C@H]1C=C(CO)[C@@H](O)[C@H](O)[C@H]1O` (stereo partly drawn) [ACARBOSE], the pIC50 in assay [1] is 3.47. Moreover, the pKi in assay [3] was 3.59.
In turn, `C=C1C(=O)O[C@@H]2C[C@@H](C)/C=C\C(=O)[C@](C)(O)[C@H](OC(C)=O)[C@@H](OC(=O)/C(C)=C/C)[C@@H]12` [CALEIN C] showed a negative-log IC50 (pIC50) in assay [1] of 3.55. This compound gave a pKi in assay [4] of 3.39.
For `COc1cc(-c2oc3cc(O)cc(O)c3c(=O)c2O)ccc1O` [ISORHAMNETIN], in that order: 3.80 and 2.72.

(Values after ChEMBL document CHEMBL2046341, “α-glucosidase inhibitors from Brickellia cavanillesii” (J Nat Prod, 2012).)
